Patent US20040006103A1, “Use of chloroquine, hydroxychloroquine and 4 amino-quinolinic derivatives to obtain a drug for the anti retroviral therapy, active towards HIV sensitive strains and towards HIV strains which are resistant to both nucleosidic and non-nucleosidic reverse transcriptase inhibitors and to proteases …” (VALPHARMA S.A., priority 2002, published 2004)
Like-named read-outs stand apart in the source and are kept apart here.

Assays:
[1] = system: HIV-1 strains geno-phenotypically resistant to NVP; assay: p24 production susceptibility test, Table 6, MT-2 cells; type: cell-based; conditions: for EC50: Human immunodeficiency virus 1, MT2, MT-2, read-out: E.C.50 HCQ; for S.I. HCQ / Fen. HCQ (fold): MT-2; for S.I. HCQ: I.C.50/E.C.50; for Fen. HCQ (fold): ratio to HIV-IIIB
From the text: (§1) For the phenotype of the nucleosidic, non-nucleosidic and proteases inhibitors was utilised a method which consider the use of human PBMC and the protocol standardised by the AIDS Clinical Trials Group, after verifying the genotype by sequence analysis.
(§2) In order to assay in vitro the susceptibility to chloroquine and hydroxychloroquine of the viral strains, it was used the protocol of the ACTG which is characterised by the measure, of the production of antigen p24 in strongly infected cells.
(§3) The susceptibility of the viral strains to chemotherapics was determined in cell cultures, prepared in 96 wells microplates, using, for the infection, 0.1 MOI.
(§4) The supernatant of the infected cultures (either in absence or in presence of different concentrations of chemotherapic) were tested for the production of p24 after 7 days, using an ELISA test which is commercially available.
(§5) The concentrations of chloroquine and hydroxychloroquine tested ranged from 0.5 to 15 uM. At the same time non-infected cells were incubated with concentrations of chloroquine and hydroxychloroquine ranging from 0 to 50 uM to evaluate the toxicity of the compound.
(§6) After 4 day from the infection, half the cellular medium was replaced with a medium containing the corresponding dilution of chloroquine and hydroxychloroquine. The percentage of inhibition of the HIV replication, induced by chloroquine and hydroxychloroquine, was determined, after 7 day from the infection, comparing the levels of p24 of this cultures and that of the control, infected and not treated with chloroquine and hydroxychloroquine.
(§7) Therefore, the E.C.50 of chloroquine and hydroxychloroquine expresses the concentration of chemotherapic that inhibits the 50% of production of p24 and the values were calculated using linear and non linear regression analysis (the significativity for the non linear regression was R^2>0.95).
(§8) In the same experimental conditions and in the same day, but with similar concentrations of chloroquine and hydroxychloroquine, it was evaluated the vitality of the infect cell cultures, and this was expressed as I.C.50.
(§9) I.C.50 (Inhibitory Concentration) indicates the concentration of the chemotherapic agent inhibiting the vitality of the cell cultures at a rate of 50%, when there is not infection.

[2] = system: HIV-1 clinical isolated, characterised by mutations in the RT gene inducing geno-phenotypic resistance to d4T; assay: p24 production susceptibility test (ACTG protocol), Table 4; type: cell-based; conditions: for EC50: Human immunodeficiency virus 1, PBMC, read-out: E.C.50 HCQ; for S.I. HCQ / Fen. HCQ (fold): PBMC; for S.I. HCQ: I.C.50/E.C.50; for Fen. HCQ (fold): ratio to HIV-IIIB
From the text: as §1, §2, §3, §4, §5, §6, §7, §8, §9

[3] = system: HIV-1 strains cultivated in PBMC and isolated from patient naive to the treatment; assay: p24 production susceptibility test (ACTG protocol), Table 11; type: cell-based; conditions: for EC50: Human immunodeficiency virus 1, PBMC; for S.I. HCQ: I.C.50/E.C.50
Protocol: as §2, §3, §4, §5, §6, §7, §8, §9

[4] = system: viruses resistant to both reverse transcriptase and protease inhibitors; assay: p24 production susceptibility test, summary for resistant viruses; type: cell-based, HIV-1; conditions: Human immunodeficiency virus 1, range
Protocol: as §2, §3
The supernatant of the infected cultures (either in absence or in presence of different concentrations of chemotherapic) were tested for the production of p24 after 7 days, using an ELISA test which is commercially available. […]
as §6, §7

[5] = system: HIV-1 clinical isolated, characterised by mutations in the RT gene inducing geno-phenotypic resistance to ABC; assay: p24 production susceptibility test (ACTG protocol), Table 5; type: cell-based; conditions: for EC50: Human immunodeficiency virus 1, PBMC, read-out: E.C.50 HCQ; for S.I. HCQ / Fen. HCQ (fold): PBMC; for S.I. HCQ: I.C.50/E.C.50; for Fen. HCQ (fold): ratio to HIV-IIIB
From the text: as §1, §2, §3, §4, §5, §6, §7, §8, §9

[6] = system: HIV-1 clinical isolated, characterised by mutations in the RT gene inducing geno-phenotypic resistance to 3TC; assay: p24 production susceptibility test (ACTG protocol), Table 3; type: cell-based; conditions: for EC50: Human immunodeficiency virus 1, PBMC, read-out: E.C.50 HCQ; for S.I. HCQ / Fen. HCQ (fold): PBMC; for S.I. HCQ: I.C.50/E.C.50; for Fen. HCQ (fold): ratio to HIV-IIIB
From the text: as §1, §2, §3, §4
At the same time non-infected cells were incubated with concentrations of chloroquine and hydroxychloroquine ranging from 0 to 50 uM to evaluate the toxicity of the compound.
as §6, §7, §8, §9

[7] = system: HIV-1 clinical isolated, characterised by mutations in the protease gene inducing geno-phenotypic resistance to IDV; assay: p24 production susceptibility test (ACTG protocol), Table 9; type: cell-based; conditions: for EC50: Human immunodeficiency virus 1, PBMC; for S.I. HCQ: I.C.50/E.C.50; for Fen. HCQ (fold): ratio to HIV-IIIB
From the text: as §1, §2, §3, §4, §5, §6, §7, §8, §9

[8] = Gen. K65R F77L Y115F Q151M M184V
[9] = Gen. K65R S68G F77L Y115F Q151M M184V
[10] = Gen. M41L D67N M184V L210W T215Y
[11] = Gen. M4IL E44D D67N M184V R211K T215Y
[12] = Gen. M41L D67N V118I M184V T215Y
[13] = PBMC, Gen. K20R E35D M36I I54V V82T

CCN(CCO)CCCC(C)Nc1ccnc2cc(Cl)ccc12 (stereo not drawn) [HCQ, hydroxychloroquine]
EC50 ([1]; Gen. G190E): 3500 nM | EC50 ([1]; Gen. K103N): 2800 nM | EC50 ([1]; Gen. V106A): 3200 nM | EC50 ([1]; Gen. Y181C): 3200 nM | S.I. HCQ ([1]; Gen. G190E): 6 | Fen. HCQ (fold) ([1]; Gen. G190E): 1.9X fold | S.I. HCQ ([1]; Gen. K103N): 7.8 | Fen. HCQ (fold) ([1]; Gen. K103N): 1.5X fold | S.I. HCQ ([1]; Gen. V106A): 6.2 | Fen. HCQ (fold) ([1]; Gen. V106A): 1.7X fold | S.I. HCQ ([1]; Gen. Y181C): 6.1 | Fen. HCQ (fold) ([1]; Gen. Y181C): 1.7X fold | EC50 [2, 8]: 3500 nM | EC50 ([2]; Gen. K65R F116Y Q151M): 3000 nM | EC50 ([2]; Gen. M41I T69SSS T215Y): 2500 nM | EC50 ([2]; Gen. T69SSS T215Y): 3000 nM | EC50 ([2]; Gen. V75I F77L F116Y Q151M): 3000 nM | S.I. HCQ [2, 8]: 3.3 | Fen. HCQ (fold) [2, 8]: 2.3X fold | S.I. HCQ ([2]; Gen. K65R F116Y Q151M): 3.3 | Fen. HCQ (fold) ([2]; Gen. K65R F116Y Q151M): 2.2X fold | S.I. HCQ ([2]; Gen. M41I T69SSS T215Y): 3.6 | Fen. HCQ (fold) ([2]; Gen. M41I T69SSS T215Y): 1.6X fold | S.I. HCQ ([2]; Gen. T69SSS T215Y): 3.3 | Fen. HCQ (fold) ([2]; Gen. T69SSS T215Y): 2X fold | S.I. HCQ ([2]; Gen. V75I F77L F116Y Q151M): 4 | Fen. HCQ (fold) ([2]; Gen. V75I F77L F116Y Q151M): 2X fold | EC50 ([3]; HIV-1 virus sensitive to the anti-retroviral treatment, range over each experiment, read-out: E.C.50): 1500 to 3500 nM | EC50 ([3]; PBMC, Virus N°1, read-out: E.C.50 HCQ): 2200 nM | EC50 ([3]; PBMC, Virus N°2, read-out: E.C.50 HCQ): 1800 nM | EC50 ([3]; PBMC, Virus N°3, read-out: E.C.50 HCQ): 1500 nM | EC50 ([3]; PBMC, Virus N°4, read-out: E.C.50 HCQ): 2200 nM | EC50 ([3]; PBMC, Virus N°5, read-out: E.C.50 HCQ): 1800 nM | S.I. HCQ ([3]; PBMC, Virus N°1): 4.5 | S.I. HCQ ([3]; PBMC, Virus N°2): 5 | S.I. HCQ ([3]; PBMC, Virus N°3): 6 | S.I. HCQ ([3]; PBMC, Virus N°4): 4 | S.I. HCQ ([3]; PBMC, Virus N°5): 4.5 | EC50 [4]: 1500 to 3500 nM | EC50 ([5]; Gen. K65R L74V M184V): 1500 nM | EC50 [5, 9]: 2200 nM | EC50 ([5]; Gen. L74V M184F): 2200 nM | EC50 ([5]; Gen. L74V Y115F M184V): 2500 nM | EC50 [5, 10]: 1800 nM | S.I. HCQ ([5]; Gen. K65R L74V M184V): 6 | Fen. HCQ (fold) ([5]; Gen. K65R L74V M184V): 1X fold | S.I. HCQ [5, 9]: 4 | Fen. HCQ (fold) [5, 9]: 1.4X fold | S.I. HCQ ([5]; Gen. L74V M184F): 4 | Fen. HCQ (fold) ([5]; Gen. L74V M184F): 1.4X fold | S.I. HCQ ([5]; Gen. L74V Y115F M184V): 3.6 | Fen. HCQ (fold) ([5]; Gen. L74V Y115F M184V): 1.3X fold | S.I. HCQ [5, 10]: 5.5 | Fen. HCQ (fold) [5, 10]: 1.2X fold | EC50 [6, 11]: 2500 nM | EC50 [6, 12]: 3200 nM | EC50 ([6]; Gen. M184I): 2800 nM | EC50 ([6]; Gen. M184V): 3000 nM | S.I. HCQ [6, 11]: 3.5 | Fen. HCQ (fold) [6, 11]: 1.5X fold | S.I. HCQ [6, 12]: 3.3 | Fen. HCQ (fold) [6, 12]: 1.7X fold | S.I. HCQ ([6]; Gen. M184I): 3.4 | Fen. HCQ (fold) ([6]; Gen. M184I): 1.2X fold | S.I. HCQ ([6]; Gen. M184V): 3.2 | Fen. HCQ (fold) ([6]; Gen. M184V): 1.3X fold | EC50 ([7]; PBMC, Gen. G48V V82A, read-out: E.C.50 HCQ): 2.8 µM | EC50 ([7]; PBMC, Gen. I84V L90M, read-out: E.C.50 HCQ): 1.8 µM | EC50 ([7]; PBMC, Gen. K20R E35D M36I I54V V82T, read-out: E.C.50 HCQ): 2.2 µM | EC50 ([7]; PBMC, Gen. V82F L90M, read-out: E.C.50 HCQ): 3.3 µM | EC50 ([7]; read-out: E.C.50 HCQ (uM), PBMC, Gen. L10R M46I L63P V82T): 1.8 µM | S.I. HCQ ([7]; PBMC, Gen. G48V V82A): 3 | Fen. HCQ (fold) ([7]; PBMC, Gen. G48V V82A): 1.5X fold | S.I. HCQ ([7]; PBMC, Gen. I84V L90M): 5.5 | Fen. HCQ (fold) ([7]; PBMC, Gen. I84V L90M): 1X fold | S.I. HCQ [7, 13]: 4.5 | Fen. HCQ (fold) [7, 13]: 1.2X fold | S.I. HCQ ([7]; PBMC, Gen. L10R M46I L63P V82T): 5 | Fen. HCQ (fold) ([7]; PBMC, Gen. L10R M46I L63P V82T): 0.8X fold | S.I. HCQ ([7]; PBMC, Gen. V82F L90M): 2.5 | Fen. HCQ (fold) ([7]; PBMC, Gen. V82F L90M): 1.7X fold
